Results: patent US5366543A, “Alcohol-soluble dye and ink composition containing the same” (Orient Chemical Industries, Ltd., priority 1992, dated 1994)
Blank lines part the entries; values can stand above or below the molecule they belong to.

Assay: Solubility Comparing Test (saturation concentration of dye in alcohol type solvents)
Assay type: physicochemical
Details: for Solubility, Mixed solvent: Phenylene glycol:Benzyl alcohol:oleic acid = 4:1:1; for Solubility, Mixed solvent / Solubility, Ethylene glycol: dye added after heating the solvent to 70-80 C; for Solubility, Ethanol / Solubility, n-Propanol: saturation concentration by spotting on filter paper
Method: Solubility of disazo salt-forming dyes (dye 1-5) obtained in Examples 1-5 and dyes a-c into alcohol type organic […] was tested. While stirring each dye with a magnet stirrer, the dye was first added to 100 parts of solvent and it was spotted on the filter paper (Toyo filter paper No. 2) to investigate the saturation concentration. When ethylene glycol or mixed solvent was used for the solvent, dye was added after heating the solvent to 70-80 C.
Phenylene glycol:Benzyl alcohol:oleic acid = 4:1:1
2) Numbers in the Table indicate the solubility (wt %) into the respectiv

SMILES: CCC(C)c1ccc(N=Nc2c(S(=O)(=O)O)cc3cc(Nc4ccc5c(O)c(N=Nc6ccc(C(C)CC)cc6)c(S(=O)(=O)O)cc5c4)ccc3c2O)cc1 (centres unmarked) [Dye 1]
Solubility, Mixed solvent (listed as 1): 30 wt %
Solubility, Ethanol (listed as 1): 20 wt %
Solubility, Ethylene glycol: 30 wt %
Solubility, n-Propanol (listed as 1): 15 wt %

SMILES: O=S(=O)(O)c1cc2cc(Nc3ccc4c(O)c(N=Nc5ccccc5)c(S(=O)(=O)O)cc4c3)ccc2c(O)c1N=Nc1ccccc1 [Dye a]
Solubility, Mixed solvent: 30 wt %
Solubility, Ethanol (listed as a): 10 wt %
Solubility, Ethylene glycol: 30 wt %
Solubility, n-Propanol: 5 wt %

SMILES: O=S(=O)(O)c1cc2cc(Nc3ccc4c(O)c(N=Nc5ccccc5)c(S(=O)(=O)O)cc4c3)ccc2c(O)c1N=Nc1ccccc1 [Dye b, reference compound]
Solubility, Ethanol (listed as b): 5 wt %

SMILES: COc1cc(N=Nc2ccccc2)c(C)cc1N=Nc1c(S(=O)(=O)O)cc2cc(S(=O)(=O)O)cc(N)c2c1O [Dye c, reference compound]
Solubility, Mixed solvent: 40 wt %
Solubility, Ethanol: 10 wt %
Solubility, Ethylene glycol: 30 wt %
Solubility, n-Propanol: 10 wt %

Other lines, results leading:

Solubility, Mixed solvent (listed as 2): 40 wt %
Solubility, Ethanol (listed as 2): 25 wt %
Solubility, Ethylene glycol: 30 wt %
Solubility, n-Propanol (listed as 2): 20 wt %
SMILES: CCC(C)c1ccc(N=Nc2c(S(=O)(=O)O)cc3cc(Nc4ccc5c(O)c(N=Nc6ccc(C(C)CC)cc6)c(S(=O)(=O)O)cc5c4)ccc3c2O)cc1 (centres unmarked) [Dye 2]

Solubility, Mixed solvent (listed as 3): 30 wt %
Solubility, Ethanol (listed as 3): 20 wt %
Solubility, n-Propanol (listed as 3): 10 wt %
SMILES: CCC(C)c1ccc(N=Nc2c(S(=O)(=O)O)cc3cc(Nc4ccc5c(O)c(N=Nc6ccc(C(C)CC)cc6)c(S(=O)(=O)O)cc5c4)ccc3c2O)cc1 (centres unmarked) [Dye 3]
